Target: Cdc7/ASK (Homo sapiens, UniProt O00311)
Assay: Cdc7 biochemical assay Method 1: 384 well ELISA, MCM2 whole protein substrate, Phospho MCM2 (S53) antibody
Design: purchased
Details: ATP 2 μM, 90 minutes, read-out: Biochemical method 1 (pIC50) (converted)
Protocol: This protocol describes a method for assaying Cdc7/ASK for activity. The assay is a 384 well ELISA assay, utilising a whole protein substrate (MCM2) and an antibody against Phospho MCM2 (S53). This site is thought to be specific to Cdc7/ASK phosphorylation and the assay has been validated using knockout mutants.
• TBS: 25 mM Tris pH 7.2, 150 mM NaCl. (Dilute 10× stock by 1:10). • Wash Buffer: TBS+0.05% Tween 20. (Add 100 mL 1 M Tris pH 7.2, 120 mL 5 M NaCl and 2 mL 100% Tween 20 per 4 L). • Kinase Reaction Buffer: 50 mM Tris-HCl pH 8.5, 10 mM MgCl2, 1 mM DTT. (Dilute 10× stock by 1:10 and add 100 μL 1M DTT per 100 mL prior to assay). • Diethanolamine Buffer: 1 M diethanolamine pH 9.8, 0.5 mM MgCl2. • Stop Solution: 1 M NaOH. • MCM2 was expressed and purified in-house and used in the assay at a final assay concentration of 436 ng/well. • Cdc7/ASK is purchased from commercial suppliers and used in the assay at a final assay concentration of 37.97 ng/well or 20.63 nM. • ATP used as a final assay concentration of 2 μM. • Primary Antibody: Rabbit anti-Phospho MCM2 (S53 Antibody (BL3353)), is purchased from commercial suppliers at 0.2 mg/mL and used at a final assay concentration by diluting 1:800 in TBS. • Secondary Antibody: Anti-Rabbit/AP Antibody is supplied is purchased from commercial suppliers at 1 mg/mL and used at a final assay concentration by diluting 1:2000 in TBS. • Development Reagent: Dissolve one 20 mg PNPP tablet (Sigma, product N2765, 20 mg per tablet) per 20 mL diethanolamine Buffer (or one 5 mg PNPP tablet per 5 mL diethanolamine buffer). Cover in foil and leave shaking on a roller shaker at room temperature for up to an hour to dissolve. Methods • 1. Add 20 μL 1× working stock of Substrate (MCM2) in TBS to all wells of a clear, 384 well, Nickel-chelate microplate to give a final concentration of 250 ng/well. Incubate at room temperature for at least 1 hour. Plates can be pre-coated for 1 hour and stored at 4° C. for up to 8 days. • 2. Wash with TBS+0.05% Tween 20 (80 μL x 3). • 3. Add 2 μL 10× test compounds, including the positive control, in 40% DMSO/water to ‘test’ wells. Add 2 μL 40% DMSO/water to ‘control’ and ‘blank’ wells. The final DMSO concentration will be 4%. • 4. Add 13 μL CDCl7/ASK Kinase (1.5× stock) in Kinase Reaction Buffer to ‘test’ and ‘control’ wells to give a final concentration of […]. Add 13 μL Kinase Reaction Buffer to ‘blank’ wells. • 5. Add 5 μL ATP (4× stock) in Kinase Reaction Buffer to all wells to give a final concentration of 2 μM. • 6. Incubate at room temperature for 90 minutes. • 7. Wash with TBS+0.05% Tween 20 (80 μL x 3). • 8. Add 20 μL 1× working solution of Primary Antibody in TBS to all wells. Incubate at room temperature for 30 minutes. • 9. Wash with TBS+0.05% Tween 20 (80 μL x 3). • 10. Add 20 μL 1× working solution of Secondary Antibody in TBS to all wells. Incubate at room temperature for 30 minutes. • 11. Wash with TBS+0.05% Tween 20 (80 μL x 3). • 12. Add 20 μL 1× Development Reagent to all wells. • 13. Incubate at room temperature for 2 hours. Stop the reaction by adding 20 μL Stop Solution to all wells and record Absorbance on a Pherastar plate reader.
Percentage inhibition values were calculated from absorbance values, using the no compound (DMSO) and no enzyme control values as 0% and 100% inhibition, respectively. IC50 determination was performed with ExcelFit software (IDBS) using curve fit 205. Z′ factors were determined for each plate tested and were all above 0.5.

Chain of Cdc7/ASK (O00311 whole entry): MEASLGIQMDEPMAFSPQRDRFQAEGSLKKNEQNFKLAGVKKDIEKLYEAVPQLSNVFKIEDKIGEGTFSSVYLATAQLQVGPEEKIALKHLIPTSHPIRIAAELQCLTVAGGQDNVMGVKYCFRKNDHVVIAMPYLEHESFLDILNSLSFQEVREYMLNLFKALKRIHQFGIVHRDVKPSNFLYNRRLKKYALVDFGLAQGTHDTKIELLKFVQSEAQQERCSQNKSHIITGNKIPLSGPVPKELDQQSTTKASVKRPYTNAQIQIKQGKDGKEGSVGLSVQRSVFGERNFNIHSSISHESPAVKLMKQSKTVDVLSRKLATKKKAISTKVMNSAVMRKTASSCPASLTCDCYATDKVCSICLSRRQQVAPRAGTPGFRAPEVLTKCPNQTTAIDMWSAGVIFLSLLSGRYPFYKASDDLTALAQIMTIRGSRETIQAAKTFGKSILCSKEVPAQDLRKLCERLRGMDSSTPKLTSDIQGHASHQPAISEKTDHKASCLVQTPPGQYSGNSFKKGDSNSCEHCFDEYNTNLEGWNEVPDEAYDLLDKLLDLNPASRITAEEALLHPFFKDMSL
Chain of Cdc7/ASK (Q9UBU7 whole entry partner): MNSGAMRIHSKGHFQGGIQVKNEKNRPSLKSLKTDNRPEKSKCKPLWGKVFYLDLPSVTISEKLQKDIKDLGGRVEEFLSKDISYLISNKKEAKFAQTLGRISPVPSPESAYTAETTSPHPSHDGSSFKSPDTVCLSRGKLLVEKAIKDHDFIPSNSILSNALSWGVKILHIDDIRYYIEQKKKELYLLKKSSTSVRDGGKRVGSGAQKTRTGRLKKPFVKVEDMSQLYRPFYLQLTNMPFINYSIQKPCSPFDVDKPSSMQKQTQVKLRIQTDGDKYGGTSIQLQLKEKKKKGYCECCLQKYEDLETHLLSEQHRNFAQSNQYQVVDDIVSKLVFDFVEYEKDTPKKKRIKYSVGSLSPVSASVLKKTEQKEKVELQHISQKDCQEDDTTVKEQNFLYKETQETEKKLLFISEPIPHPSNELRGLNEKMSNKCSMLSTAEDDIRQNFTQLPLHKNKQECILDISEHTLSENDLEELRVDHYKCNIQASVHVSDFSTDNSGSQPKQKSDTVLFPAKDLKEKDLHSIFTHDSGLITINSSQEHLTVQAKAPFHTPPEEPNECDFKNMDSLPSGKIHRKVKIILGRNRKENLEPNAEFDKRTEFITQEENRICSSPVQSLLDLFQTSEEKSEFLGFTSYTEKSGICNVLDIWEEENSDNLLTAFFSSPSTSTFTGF

| SMILES | IC50 [nM] |
| --- | --- |
| Cc1ncsc1-c1nc(C2CCN(C(=O)c3cscn3)CC2)c(Cl)c(=O)[nH]1 [Compound 21, 5-chloro-2-(4-methylthiazol-5-yl)-4-[1-(thiazole-4-carbonyl)-4-piperidyl]-1H-pyrimidin-6-one] | 3.98 |
| Cc1ncsc1-c1nc(C2CCN(C(=O)OC(C)(C)C)CC2)c(Cl)c(=O)[nH]1 [Compound 1, tert-butyl 4-[5-chloro-2-(4-methylthiazol-5-yl)-6-oxo-1H-pyrimidin-4-yl]piperidine-1-carboxylate] | 229 |
| Cc1ncsc1-c1nc(C2CCOCC2)c(Br)c(=O)[nH]1 [Compound 3, 5-bromo-2-(4-methylthiazol-5-yl)-4-tetrahydropyran-4-yl-1H-pyrimidin-6-one] | 57.5 |
| Cc1ncsc1-c1nc(C2CCN(C(=O)c3ccnnc3)CC2)c(Cl)c(=O)[nH]1 [Compound 26, 5-chloro-2-(4-methylthiazol-5-yl)-4-[1-(pyridazine-4-carbonyl)-4-piperidyl]-1H-pyrimidin-6-one] | 1.66 |
| Cc1nnsc1-c1nc(C2CCOCC2)c(Cl)c(=O)[nH]1 [Compound 11, 5-chloro-2-(4-methylthiadiazol-5-yl)-4-tetrahydropyran-4-yl-1H-pyrimidin-6-one] | 692 |
| Cc1cc(C(=O)N2CCC(c3nc(-c4scnc4C)[nH]c(=O)c3Cl)CC2)[nH]n1 [Compound 22, 5-chloro-4-[1-(3-methyl-1H-pyrazole-5-carbonyl)-4-piperidyl]-2-(4-methylthiazol-5-yl)-1H-pyrimidin-6-one] | 4.37 |
| Cc1ncsc1-c1nc(N2CCCNC(=O)C2)c(Cl)c(=O)[nH]1 [Compound 34, 4-[5-chloro-2-(4-methylthiazol-5-yl)-6-oxo-1H-pyrimidin-4-yl]-1,4-diazepan-2-one] | 158 |
| Cc1ncsc1-c1nc(C2CCOCC2)c(I)c(=O)[nH]1 [Compound 7, 5-Iodo-2-(4-methylthiazol-5-yl)-4-tetrahydropyran-4-yl-1H-pyrimidin-6-one] | 245 |
| Cc1ncsc1-c1nc(C2CCN(CC(C)C)CC2)c(Cl)c(=O)[nH]1 [Compound 27, 5-chloro-4-(1-isobutyl-4-piperidyl)-2-(4-methylthiazol-5-yl)-1H-pyrimidin-6-one] | 56.2 |
| Cc1nc(O)sc1-c1nc(C2CCOCC2)c(Cl)c(=O)[nH]1 [Compound 5, 5-chloro-2-(2-hydroxy-4-methyl-thiazol-5-yl)-4-tetrahydropyran-4-yl-1H-pyrimidin-6-one] | 126 |
| Cc1ncsc1-c1nc(C2CCOCC2)c(C#N)c(=O)[nH]1 [Compound 18, 2-(4-methylthiazol-5-yl)-6-oxo-4-tetrahydropyran-4-yl-1H-pyrimidine-5-carbonitrile] | 60.3 |
| Cc1ncsc1-c1nc(C2CCN(C(=O)C3CC3(F)F)CC2)c(Cl)c(=O)[nH]1 (stereo not shown) [Compound 19, 5-chloro-4-[1-(2,2-difluorocyclopropanecarbonyl)-4-piperidyl]-2-(4-methylthiazol-5-yl)-1H-pyrimidin-6-one] | 40.7 |
| O=c1[nH]c(-c2cncs2)nc(C2CCOCC2)c1Cl [Compound 9, 5-chloro-4-tetrahydropyran-4-yl-2-thiazol-5-yl-1H-pyrimidin-6-one] | 562 |
| Cn1nccc1-c1nc(C2CCOCC2)c(Cl)c(=O)[nH]1 [Compound 10, 5-chloro-2-(2-methylpyrazol-3-yl)-4-tetrahydropyran-4-yl-1H-pyrimidin-6-one] | 93.3 |
| Cc1cc(C(=O)N2CCC(c3nc(-c4scnc4C)[nH]c(=O)c3Cl)CC2)n(C)n1 [Compound 24, 5-chloro-4-[1-(2,5-dimethylpyrazole-3-carbonyl)-4-piperidyl]-2-(4-methylthiazol-5-yl)-1H-pyrimidin-6-one] | 3.98 |
| Cc1ncsc1C(=O)N1CCC(c2nc(-c3scnc3C)[nH]c(=O)c2Cl)CC1 [Compound 20, 5-chloro-4-[1-(4-methylthiazole-5-carbonyl)-4-piperidyl]-2-(4-methylthiazol-5-yl)-1H-pyrimidin-6-one] | 4.47 |

— patent US11766434B2, “Pyrimidinone derivatives as CDC7 inhibitors” (Cancer Research Technology Limited, priority 2016, dated 2023)
